This is an account of results in patent publication US10576126B2, “Antitumor agent” (NATIONAL UNIVERSITY CORPORATION ASAHIKAWA MEDICAL UNIVERSITY, priority 2016, dated 2020).

“Also recorded” adds a separate entry of the source. Where two headings read alike, the source gives them in different places. Where a SMILES comes first, the peptide text is derived from it. [ ]: non-standard residue; d: D form. Orn(N5-OH,N5-Ac) = CC(=O)N(O)CCC[C@H](N)C(=O)O

Series [1] relates to rat intestinal epithelial cell line IEC-18.
Series [2] deals with pancreatic cancer cell line KP1N. The series is described as follows: Antitumor activity, pancreatic cancer cell line KP1N. It is filed as cell-based.
Series [3] relates to pancreatic cancer cell line suit2. The series can be described thus: SRB assay, pancreatic cancer cell line suit2. It is filed as cell-based. A general note: The SRB assay estimates cell density from bound dye.
The test system of series [4] is colorectal cancer cell line HT29. The series is described as follows: SRB assay, colorectal cancer cell line HT29. It is filed as cell-based.
For series [5], the system named is gastric cancer cells MKN45. The series is described as follows: MKN45 subcutaneous transplantation in BALB/c nude mice. It is filed as in vivo. As to conditions: 100 μg daily into the transplantation site, vs PBS. The method, then:
Two groups of BALB/c nude mice (n=6/group) were transplanted with 1×10^6 gastric cancer cells MKN45 by subcutaneous injection into their back. Each day from the day following transplantation, 100 μg of ferrichrome dissolved in PBS in one group and PBS alone in the other group were administered into the transplantation site, and the mice were kept under normal breeding conditions for 21 days. Photographs of the transplantation site 1 day and 19 days after transplantation are shown in FIG. 19, and the change in tumor volume ratio when the tumor volume 1 day after transplantation set to 1 is shown in FIG. 20.

The subject of series [6] is gastric cancer cell line MKN74. The series can be described thus: Antitumor activity, gastric cancer cell line MKN74. It is filed as cell-based.
The subject of series [7] is tumor in the large intestine. The series is described as follows: AOM-DSS chemical carcinogenic mice, intraperitoneal administration. It is filed as in vivo. As to conditions: 100 μg intraperitoneally once every 2 days for 49 days, vs PBS. The method, then:
Azoxymethane (AOM) was administered intraperitoneally at 10 mg/kg to BALB/c mice (6 weeks old, male). Following 1 week breeding after AOM treatment, mice were administered drinking water containing dextran sulfate sodium (DSS, MP bio) diluted to 1% with distilled water by free access for 1 week. After a 1-week wash-out period, 100 μg of ferrichrome dissolved in PBS was intraperitoneally administered once every 2 days for 49 days under normal breeding conditions. After breeding, the large intestine was taken out from the mice and the tumor area was measured.
Normal mice not administered AOM and DSS and chemical carcinogenic mice intraperitoneally administered PBS alone were prepared, respectively, and the tumor area in the large intestine was measured in the same manner. Photographs showing the appearance of the large intestine in each mouse are shown in FIG. 25, and tumor areas in the large intestine are shown in FIG. 26.

Another series relates to PARP. The series can be described thus: Western blotting for PARP in SW620. The note with it: ferrichrome-treated SW620, Western blotting. It is filed as cell-based. The source says: (§1) Total proteins recovered from the ferrichrome-treated colorectal cancer cell line SW620 using mammalian cell extraction kit (BioVision) were subjected to Western blotting using specific antibodies for cleaved caspase-3 and PARP (Cell Signaling), respectively.
A general note: In western blotting, separated proteins are transferred to a membrane and probed.

Series [8] has as its system DNA damage-inducible transcript 3 (DDIT3). The series can be described thus: DDIT3 expression in SW620. It is filed as cell-based. As to the method:
Changes in mRNA expression between ferrichrome-treated and untreated colorectal cancer cell line SW620 were measured by high-throughput sequence analysis using a MetaCore software program. […] DDIT3 is a protein known to be involved in Bax-Bak mitochondrial permeation and JNK signaling (Tabas I, Ron D. Nat Cell Biol. 2011 March; 13(3): 184-90).

For series [9], the system named is gastric cancer cell line MKN7. The series can be described thus: Antitumor activity, gastric cancer cell line MKN7. It is filed as cell-based.
The subject of another series is cleaved caspase-3. The series can be described thus: Western blotting for cleaved caspase-3 in SW620. It is filed as cell-based. The note with it: ferrichrome-treated SW620, Western blotting.
Source text: as §1

Another series has as its system phosphorylated JNK. The series can be described thus: Western blotting for phosphorylated JNK in SW620. It is filed as cell-based. As to conditions: ferrichrome-treated SW620, Western blotting.
Series [10] has as its system colorectal cancer cell line HCT116. The series can be described thus: SRB assay, colorectal cancer cell line HCT116. It is filed as cell-based.
For series [11], the system named is pancreatic cancer cell line KP3. The series is described as follows: Antitumor activity, pancreatic cancer cell line KP3. It is filed as cell-based.
Series [12] deals with esophageal cancer cell line OE33. The series can be described thus: SRB assay, esophageal cancer cell line OE33. It is filed as cell-based.
The test system of series [13] is pancreatic cancer cell line KP3L. The series is described as follows: Antitumor activity, pancreatic cancer cell line KP3L. It is filed as cell-based.
In series [14] the test system is colorectal cancer cell line SW620. The series can be described thus: SW620 subcutaneous transplantation in BALB/c-nude mice. It is filed as in vivo. The note with it: 10 μg/day to the transplantation site, daily, observed for 9 days, vs PBS. An excerpt: 2×10^6 cells of colorectal cancer cell line SW620 were transplanted subcutaneously into the back of BALB/c-nude mice. […] The appearance of the mice on day 1 after transplantation and on day 9 after transplantation are shown in FIG. 6, and the change in tumor mass volume is shown in FIG. 7, respectively.

Series [15] concerns pancreatic cancer cell line Miapaca. The series is described as follows: Antitumor activity, pancreatic cancer cell line Miapaca. It is filed as cell-based.
For series [16], the system named is esophageal cancer cell line OE19. The series is described as follows: Antitumor activity, esophageal cancer cell line OE19. It is filed as cell-based.
The subject of series [17] is mouse primary intestinal epithelial cells. The series can be described thus: SRB assay, mouse primary intestinal epithelial cells. It is filed as cell-based. As to the method: Mouse primary intestinal epithelial cells were prepared and cultured according to the method as reported previously (Liu X et al., Am J Pathol. 2012 February; 180(2): 599-607).
The subject of series [18] is colorectal cancer cell line SW620. The series can be described thus: SRB assay, colorectal cancer cell line SW620. It is filed as cell-based. The method, then:
(§2) L. casei ATCC334, LGG ATCC53103, L. coryniformis ATCC25600 and L. fermentis ATCC23271 were purchased from ATCC. These microorganisms were cultured overnight at 37° C. using MRS broth (Difco) and then transferred to MEM and cultured for one day. The cultured medium was centrifuged at 5,000×g for 10 minutes to collect the supernatant, which was filtered through a 0.2 μm filter and used as the culture supernatant in the following examples.
(§3) By using the colorectal cancer cell lines Caco2/bbe, SKCO-1 and SW620 as test cells and the culture supernatants of LGG ATCC53103, L. casei ATCC334, L. coryniformis ATCC25600 and L. fermentis ATCC23271 as measurement samples, an antitumor activity of each supernatant was measured by SRB-assay.
This fraction was subjected to mass spectrometry (TOF, ionization method: micro ESI) using Nano Frontier elD Liquid Chromatograpy Mass Spectrometer (Hitachi High-technologies), and a chart shown in FIG. 3A was obtained. The peak at m/z 763.2 in this chart was approximately consistent with that in the chart obtained for commercial ferrichrome (Sigma-Aldrich) by mass spectrometry in a similar mannar (FIG. 3B). By using commercially available ferrichrome as a measurement sample and the colorectal cancer cell line SW620 as a test cell, an antitumor activity was measured.

Series [19] relates to colorectal cancer cell line SKCO-1. The series is described as follows: SRB assay, colorectal cancer cell line SKCO-1. The note with it: SKCO-1, SRB assay. It is filed as cell-based. The method, then:
as §2, §3

Series [20] concerns gastric cancer cell line MKN45. The series is described as follows: SRB assay, gastric cancer cell line MKN45. It is filed as cell-based.
Series [21] relates to colorectal cancer cell line Caco2/bbe. The series can be described thus: SRB assay, colorectal cancer cell line Caco2/bbe. It is filed as cell-based. The method, then:
as §2, §3

The subject of series [22] is rat intestinal epithelial cell line IEC-18. The series can be described thus: SRB assay, rat intestinal epithelial cell line IEC-18. As to conditions: rat intestinal epithelial cells.
The test system of series [23] is gastric cancer cell line SH-10-TC. The series is described as follows: SRB assay, gastric cancer cell line SH-10-TC. It is filed as cell-based.
A short description of series [24]: Blood AST, ALT and serum iron in C57/BL6 mice. As to conditions: oral or intravenous, 10 μg or 100 μg/day for 7 days, vs controls. It is filed as in vivo. As to the method:
Blood AST (aspartate aminotransferase), ALT (alanine aminotransferase), and serum iron were measured in C57/BL6 mice (n=5) after oral or intravenous administration of 10 μg or 100 μg of ferrichrome/day for 7 days.

The test system of series [25] is pancreatic cancer cell line bxpc3. The series can be described thus: SRB assay, pancreatic cancer cell line bxpc3. It is filed as cell-based.
In series [26] the test system is pancreatic cancer cell Suit2. The series can be described thus: Suit2 subcutaneous transplantation in nude mice. It is filed as in vivo. As to conditions: 100 μg intraperitoneally once every two days for 12 days, vs PBS. As to the method:
Two days after subcutaneous transplantation of 1×10^6 pancreatic cancer cell Suit2 in two groups of nude mice (n=5/group), 100 μg of ferrichrome dissolved in PBS in one group and PBS alone in the other group were administered intraperitoneally once every two days for 12 days under normal breeding Conditions. A photograph of the transplantation site 12 days after transplantation is shown in FIG. 21, and the change in volume of the tumor mass is shown in FIG. 22.

For series [27], the system named is tumor in the large intestine. The series is described as follows: AOM-DSS chemical carcinogenic mice, oral administration. It is filed as in vivo. As to conditions: 50 μg orally daily for 28 days, vs PBS. The method, then:
Azoxymethane (AOM) was administered intraperitoneally at 10 mg/kg to BALB/c mice (6 weeks old, male). Following 1 week breeding after AOM treatment, mice were administered drinking water containing dextran sulfate sodium (DSS, MP bio) diluted to 1.5% with distilled water by free access for 1 week. After a 1-week wash-out period, mice were administered drinking water containing dextran sulfate sodium (DSS, MP bio) diluted to 1% with distilled water by free access for 1 week, to prepare chemical carcinogenic models. After one more 1-week wash-out period, 50 μg of ferrichrome diluted in PBS was orally administered daily for 28 days under normal breeding conditions. After breeding, the large intestine was taken out from the mice and the tumor area was measured.
Normal mice not administered AOM and DSS and chemical carcinogenic mice orally administered PBS alone were prepared, respectively, and the tumor area in the large intestine was measured in the same manner. Photographs showing the appearance of the large intestine in each mouse are shown in FIG. 23, and tumor areas in the large intestine are shown in FIG. 24.

Series [28] deals with colorectal cancer cell line SW620. The series can be described thus: TUNEL staining of SW620. It is filed as cell-based. The note with it: SW620, 0.1 μg/mL.

On to `N.N.[Cl][Pt][Cl]` [cisplatin], for which the “effect on cell density of IEC-18” value in series [1] is listed as “reduced a cell density”.
As to `O=c1[nH]cc(F)c(=O)[nH]1` [5-FU, 5-fluorouracil], the “effect on cell density of IEC-18” value in series [1] is listed as “reduced a cell density”.
Turning to `CC(=O)N([O-])CCC[C@@H]1NC(=O)CNC(=O)CNC(=O)CNC(=O)[C@H](CCCN([O-])C(C)=O)NC(=O)[C@H](CCCN([O-])C(C)=O)NC1=O.[Fe+3]` [ferrichrome] (cyclo(GGG[Orn(N5-OH,N5-Ac)][Orn(N5-OH,N5-Ac)][Orn(N5-OH,N5-Ac)])), the antitumor activity result is on record as “exhibit an antitumor activity” in series [2]; “exhibited an antitumor activity” in series [4]; “exhibit an antitumor activity” in [6]; “exhibit an antitumor activity” in [9]; “exhibited an antitumor activity” in series [10]; “exhibit an antitumor activity” in series [11]. Besides, the antitumor activity entry in series [13], in series [15] and in series [16] was “exhibit an antitumor activity” in each case. In addition, the “antitumor activity (cell density, OD at 510 nm)” value in series [3] is reported as “dose-dependent antitumor activity”; in series [12], “dose-dependent antitumor activity”; in [18] it was “dose-dependent antitumor activity”; in series [18] (listed as Ferrichrome), “strong antitumor activity”; in series [19] it was “exhibited an antitumor activity”; in series [20], “dose-dependent antitumor activity”. Also, the “antitumor activity (cell density, OD at 510 nm)” value in series [21], in series [23] and in [25] was “dose-dependent antitumor activity” in each case. The “tumor volume ratio (volume 1 day after transplantation set to 1)” value in series [5] (21 days) is recorded as “suppressed”. The “tumor mass size at the transplantation site” value in [5] is “reduced to such an extent that it could be clearly distinguished by the naked eye”. In addition, the “tumor area in the large intestine” value in series [7] and in series [27] was “significantly suppressed” in each case. Besides, the “expression of PARP” value with PARP is listed as “increased dose-dependently”. Moreover, in [8] (SW620, RT-PCR and Western blotting), the “expression of DDIT3” value is recorded as “enhanced expression”. Besides, the “mRNA expression level of DDIT3” value in [8] (SW620 treated vs untreated, high-throughput sequence analysis) is “remarkable change (increase in expression)”. Also, the “expression of cleaved caspase-3” value with cleaved caspase-3 is listed as “increased dose-dependently”. Besides, the “expression of phosphorylated JNK” value in the series on phosphorylated JNK is recorded as “increased”. Moreover, in series [14], the “growth of the tumor mass (tumor mass volume)” value is “markedly inhibited the growth of the tumor mass”. Besides, the “effect on cell density of mouse primary intestinal epithelial cells” value in [17] is given as “not significantly reducing cell densities”. Moreover, the “antitumor activity compared with 5-FU and cisplatin” value in [18] is on record as “higher antitumor activity”. Further, in series [22], the “effect on cell density of IEC-18” value was “not significantly reducing cell densities; also recorded: did not significantly affect the cell density”. Besides, the “blood ALT (alanine aminotransferase)” value in series [24] is recorded as “No significant changes”. Also, the “blood AST (aspartate aminotransferase)” value in [24] is reported as “No significant changes”. The serum iron result in series [24] was “No significant changes”. In addition, the “increase in tumor volume” value in series [26] was “markedly suppressed”. In series [28], the “induction of apoptosis (TUNEL stain-positive cells)” value is “induction of apoptosis was also confirmed”.
